PubChem BioAssay (NCI)
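Compound exposure: 48 hours, 5 concentrations, 96-well plates. GI50: concentration for 50% inhibition of growth. TGI: concentration producing complete growth inhibition.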

Assays:
Assay in all cases: NCI-60 cell line screen, 48 h
SNB-75 CNS = test system: SNB-75 CNS
MDA-MB-435 = test system: MDA-MB-435
SNB-19 CNS = test system: SNB-19 CNS
LOX IMVI melanoma = test system: LOX IMVI melanoma
SK-OV-3 ovarian = test system: SK-OV-3 ovarian
HCT-116 colon = test system: HCT-116 colon
SK-MEL-5 melanoma = test system: SK-MEL-5 melanoma
IGROV1 ovarian = test system: IGROV1 ovarian
HS 578T breast = test system: HS 578T breast
SF-295 CNS = test system: SF-295 CNS
NCI/ADR-RES ovarian = test system: NCI/ADR-RES ovarian
DLD-1 colon = test system: DLD-1 colon
SF-539 CNS = test system: SF-539 CNS
DMS 273 small cell lung = test system: DMS 273 small cell lung
HOP-92 NSCLC = test system: HOP-92 NSCLC
NCI-H522 lung = test system: NCI-H522 lung
U251 CNS = test system: U251 CNS
NCI-H226 lung = test system: NCI-H226 lung
OVCAR-8 ovarian = test system: OVCAR-8 ovarian
KM20L2 colon = test system: KM20L2 colon
EKVX NSCLC = test system: EKVX NSCLC
SK-MEL-2 melanoma = test system: SK-MEL-2 melanoma
HCT-15 colon = test system: HCT-15 colon
HOP-62 NSCLC = test system: HOP-62 NSCLC
CAKI-1 renal = test system: CAKI-1 renal
SN12C renal = test system: SN12C renal
SK-MEL-28 melanoma = test system: SK-MEL-28 melanoma
MALME-3M melanoma = test system: MALME-3M melanoma
KM12 colon = test system: KM12 colon
A549 NSCLC = test system: A549 NSCLC
M14 melanoma = test system: M14 melanoma
786-0 renal = test system: 786-0 renal
UACC-62 melanoma = test system: UACC-62 melanoma
COLO 205 colon = test system: COLO 205 colon
UO-31 renal = test system: UO-31 renal
OVCAR-3 ovarian = test system: OVCAR-3 ovarian
HT29 colon = test system: HT29 colon
TK-10 renal = test system: TK-10 renal
HOP-18 NSCLC = test system: HOP-18 NSCLC
OVCAR-4 ovarian = test system: OVCAR-4 ovarian
SF-268 CNS = test system: SF-268 CNS
NCI-H23 lung = test system: NCI-H23 lung
SW-620 colon = test system: SW-620 colon
MDA-MB-231 breast = test system: MDA-MB-231 breast
CCRF-CEM leukemia = test system: CCRF-CEM leukemia
RXF 393 renal = test system: RXF 393 renal
NCI-H460 lung = test system: NCI-H460 lung
OVCAR-5 ovarian = test system: OVCAR-5 ovarian
RPMI-8226 leukemia = test system: RPMI-8226 leukemia
HL-60(TB) leukemia = test system: HL-60(TB) leukemia
A498 renal = test system: A498 renal
DMS 114 small cell lung = test system: DMS 114 small cell lung
ACHN renal = test system: ACHN renal
K-562 leukemia = test system: K-562 leukemia
UACC-257 melanoma = test system: UACC-257 melanoma
DU-145 prostate = test system: DU-145 prostate
MCF7 breast = test system: MCF7 breast
HCC-2998 colon = test system: HCC-2998 colon
BT-549 breast = test system: BT-549 breast
RXF-631 renal = test system: RXF-631 renal

Cl.[O-]c1cccc2cccnc12.[O-]c1cccc2cccnc12.[O-]c1cccc2cccnc12.[O-]c1cccc2cccnc12.[Ti+4]
GI50 (SNB-75 CNS): 9.55 µM | TGI (SNB-75 CNS): > 100 µM | GI50 (MDA-MB-435): 11.6 µM | TGI (MDA-MB-435): > 100 µM | GI50 (SNB-19 CNS): 70.8 µM | TGI (SNB-19 CNS): > 100 µM | GI50 (LOX IMVI melanoma): 1.69 µM | TGI (LOX IMVI melanoma): > 88.9 µM | GI50 (SK-OV-3 ovarian): 3.94 µM | TGI (SK-OV-3 ovarian): > 73.8 µM | GI50 (HCT-116 colon): 0.355 µM | TGI (SK-MEL-5 melanoma): 2.46 µM | TGI (IGROV1 ovarian): 2.92 µM | GI50 (HS 578T breast): > 100 µM | TGI (HS 578T breast): > 100 µM | GI50 (SF-295 CNS): 3.09 µM | TGI (SF-295 CNS): > 100 µM | GI50 (NCI/ADR-RES ovarian): 0.243 µM | TGI (NCI/ADR-RES ovarian): 11.5 µM | TGI (DLD-1 colon): 1.6 µM | GI50 (SF-539 CNS): 2.06 µM | TGI (SF-539 CNS): 14.4 µM | TGI (DMS 273 small cell lung): 1.69 µM | GI50 (HOP-92 NSCLC): 15.7 µM | TGI (HOP-92 NSCLC): > 71.7 µM | GI50 (NCI-H522 lung): 0.12 µM | TGI (NCI-H522 lung): 0.256 µM | GI50 (U251 CNS): 2.53 µM | TGI (U251 CNS): 30.5 µM | GI50 (NCI-H226 lung): 7.9 µM | TGI (NCI-H226 lung): > 89.9 µM | GI50 (OVCAR-8 ovarian): 0.779 µM | TGI (OVCAR-8 ovarian): > 31.5 µM | TGI (KM20L2 colon): > 76 µM | GI50 (EKVX NSCLC): 0.916 µM | TGI (EKVX NSCLC): > 27.4 µM | GI50 (SK-MEL-2 melanoma): 3.32 µM | TGI (SK-MEL-2 melanoma): 26.1 µM | GI50 (HCT-15 colon): 0.354 µM | TGI (HCT-15 colon): 7.06 µM | GI50 (HOP-62 NSCLC): 4.7 µM | TGI (HOP-62 NSCLC): 59.6 µM | GI50 (CAKI-1 renal): 1.61 µM | TGI (CAKI-1 renal): > 100 µM | GI50 (SN12C renal): 2.74 µM | TGI (SN12C renal): > 91.1 µM | GI50 (SK-MEL-28 melanoma): 4.33 µM | TGI (SK-MEL-28 melanoma): > 35.4 µM | GI50 (MALME-3M melanoma): 1.91 µM | TGI (MALME-3M melanoma): > 40.2 µM | GI50 (KM12 colon): 2.28 µM | TGI (KM12 colon): 8.04 µM | GI50 (A549 NSCLC): 0.89 µM | TGI (A549 NSCLC): 12 µM | GI50 (M14 melanoma): 0.994 µM | TGI (M14 melanoma): 17.8 µM | GI50 (786-0 renal): 0.567 µM | TGI (786-0 renal): 4.41 µM | GI50 (UACC-62 melanoma): 1.84 µM | TGI (UACC-62 melanoma): 14.6 µM | GI50 (COLO 205 colon): 1.08 µM | TGI (COLO 205 colon): 3.55 µM | GI50 (UO-31 renal): 5.59 µM | TGI (UO-31 renal): > 100 µM | GI50 (OVCAR-3 ovarian): 0.121 µM | TGI (OVCAR-3 ovarian): 0.621 µM | GI50 (HT29 colon): 0.914 µM | TGI (HT29 colon): 6.86 µM | GI50 (TK-10 renal): 53.7 µM | TGI (TK-10 renal): > 100 µM | TGI (HOP-18 NSCLC): > 100 µM | GI50 (OVCAR-4 ovarian): 0.959 µM | GI50 (SF-268 CNS): 0.594 µM | TGI (SF-268 CNS): > 100 µM | GI50 (NCI-H23 lung): 1.4 µM | GI50 (SW-620 colon): 0.393 µM | TGI (SW-620 colon): > 100 µM | GI50 (MDA-MB-231 breast): 1.26 µM | TGI (MDA-MB-231 breast): > 100 µM | GI50 (CCRF-CEM leukemia): 0.291 µM | GI50 (RXF 393 renal): 0.319 µM | TGI (RXF 393 renal): 2.13 µM | GI50 (NCI-H460 lung): 1.28 µM | TGI (NCI-H460 lung): 10.2 µM | GI50 (OVCAR-5 ovarian): 2.71 µM | TGI (OVCAR-5 ovarian): 19.5 µM | TGI (RPMI-8226 leukemia): 2.67 µM | GI50 (HL-60(TB) leukemia): 0.226 µM | GI50 (A498 renal): 8.24 µM | TGI (A498 renal): 21.7 µM | TGI (DMS 114 small cell lung): 0.365 µM | GI50 (ACHN renal): 2.62 µM | TGI (ACHN renal): > 100 µM | GI50 (K-562 leukemia): 0.303 µM | GI50 (UACC-257 melanoma): 0.712 µM | TGI (UACC-257 melanoma): > 35.1 µM | GI50 (DU-145 prostate): 10.5 µM | TGI (DU-145 prostate): > 100 µM | GI50 (MCF7 breast): 0.955 µM | TGI (MCF7 breast): > 100 µM | GI50 (HCC-2998 colon): 2.1 µM | TGI (HCC-2998 colon): 4.5 µM | TGI (BT-549 breast): > 100 µM

CCCCCCCCCCCCCCCCCC(=O)NCC(COP(=O)([O-])OCC[N+](C)(C)C)OCC (centres undefined)
TGI (SNB-19 CNS): 0.326 µM | TGI (LOX IMVI melanoma): 44.6 µM | TGI (SK-OV-3 ovarian): 33.7 µM | TGI (SK-MEL-5 melanoma): 32.2 µM | TGI (SF-539 CNS): 31.6 µM | TGI (DMS 273 small cell lung): 0.284 µM | TGI (KM20L2 colon): 0.71 µM | TGI (EKVX NSCLC): 38.7 µM | TGI (SK-MEL-28 melanoma): 32.5 µM | TGI (MALME-3M melanoma): 36.1 µM | TGI (RXF-631 renal): 37.5 µM | TGI (A549 NSCLC): 33.4 µM | TGI (UO-31 renal): 33.8 µM | TGI (NCI-H23 lung): 34.6 µM | TGI (DMS 114 small cell lung): 32.9 µM | TGI (UACC-257 melanoma): 33 µM
